Source: PubChem BioAssay AID1963830 (Molecular Pharmacology Branch, DTP, NCI, 2024)

Tested on: 922993-354-T-J3-PDC complex spheroid viability
Assay: Anticancer human tumor 922993-354-T-J3-PDC patient-derived endometrial carcinoma cell line growth inhibition [POLQ]
Conditions: for IC50: curve of first compound; for viability, T/C: stronger effect = lower value
Outline: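 Three-cell-type spheroids modelling solid tumor plus stroma served as the readout system; POL inhibitors were tested individually and in combination, concentration ranges set by clinical Cmax where known.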

[1] = second compound 0.0316 µM, first compound 0.0316 µM
[2] = second compound 0.0316 µM, first compound 0.1 µM
[3] = second compound 0.0316 µM, first compound 0.316 µM
[4] = second compound 0.0316 µM, first compound 1 µM
[5] = second compound 0.0316 µM, first compound 3.16 µM
[6] = second compound 0.0316 µM, first compound 10 µM
[7] = second compound 0.1 µM, first compound 0.0316 µM
[8] = second compound 0.1 µM, first compound 0.1 µM
[9] = second compound 0.1 µM, first compound 0.316 µM
[10] = second compound 0.1 µM, first compound 1 µM
[11] = second compound 0.1 µM, first compound 3.16 µM
[12] = second compound 0.1 µM, first compound 10 µM
[13] = second compound 0.316 µM, first compound 0.0316 µM
[14] = second compound 0.316 µM, first compound 0.1 µM
[15] = second compound 0.316 µM, first compound 0.316 µM
[16] = second compound 0.316 µM, first compound 1 µM
[17] = second compound 0.316 µM, first compound 3.16 µM
[18] = second compound 0.316 µM, first compound 10 µM
[19] = second compound 1 µM, first compound 0.0316 µM
[20] = second compound 1 µM, first compound 0.1 µM
[21] = second compound 1 µM, first compound 0.316 µM
[22] = second compound 1 µM, first compound 1 µM
[23] = second compound 1 µM, first compound 3.16 µM
[24] = second compound 1 µM, first compound 10 µM
[25] = second compound 3.16 µM, first compound 0.0316 µM
[26] = second compound 3.16 µM, first compound 0.1 µM
[27] = second compound 3.16 µM, first compound 0.316 µM
[28] = second compound 3.16 µM, first compound 1 µM
[29] = second compound 3.16 µM, first compound 3.16 µM
[30] = second compound 3.16 µM, first compound 10 µM
[31] = second compound 10 µM, first compound 0.0316 µM
[32] = second compound 10 µM, first compound 0.1 µM
[33] = second compound 10 µM, first compound 0.316 µM
[34] = second compound 10 µM, first compound 1 µM
[35] = second compound 10 µM, first compound 3.16 µM
[36] = second compound 10 µM, first compound 10 µM
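Note: spheroids exposed to the agents for one week.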
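Throughout, for viability, T/C: 100% = DMSO vehicle control wells.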

COc1cccc2c1C(=O)c1c(O)c3c(c(O)c1C2=O)CC(O)(C(=O)CO)CC3OC1CC(N)C(O)C(C)O1 (stereo unspecified) + Nc1ccc(C#CCN(C(=O)Cc2ncc(C(F)(F)F)cc2C(F)(F)F)c2ccc(F)cc2)nn1 showed an IC50 (second compound 0.0316 µM) of 5.58 µM, an IC50 (second compound 0.1 µM) of 5.44 µM and an IC50 (second compound 0.316 µM) of 5.79 µM. The IC50 (second compound 1 µM) was 5.39 µM, the IC50 (second compound 3.16 µM) was 2.31 µM and the IC50 (second compound 10 µM) was 0.24 µM. It also gave a viability, T/C [1] of 103%, a viability, T/C [2] of 105% and a viability, T/C [3] of 91.3%. It also gave a viability, T/C [4] of 84.9%, a viability, T/C [5] of 74.7% and a viability, T/C [6] of 28.3%. The viability, T/C [7] was 102%, the viability, T/C [8] was 103% and the viability, T/C [9] was 92.3%. The viability, T/C [10] was 87.9%, the viability, T/C [11] was 74.3% and the viability, T/C [12] was 24.9%. The viability, T/C [13] was 105%, the viability, T/C [14] was 101% and the viability, T/C [15] was 99.6%. It also gave a viability, T/C [16] of 85.4%, a viability, T/C [17] of 71% and a viability, T/C [18] of 32.1%. The viability, T/C [19] was 98.9%, the viability, T/C [20] was 105% and the viability, T/C [21] was 96.2%. For the same compound, the viability, T/C [22] was 80.7%, the viability, T/C [23] was 72.1% and the viability, T/C [24] was 28.2%. For the same compound, the viability, T/C [25] was 95.2%, the viability, T/C [26] was 93.4% and the viability, T/C [27] was 79.7%. The viability, T/C [28] was 75.4%, the viability, T/C [29] was 39.9% and the viability, T/C [30] was 17.5%. For the same compound, the viability, T/C [31] was 78.7%, the viability, T/C [32] was 75.2% and the viability, T/C [33] was 41.5%. For the same compound, the viability, T/C [34] was 14.5%, the viability, T/C [35] was 38.1% and the viability, T/C [36] was 14.8%.

Nc1ccn(C2OC(CO)C(O)C2(F)F)c(=O)n1 (stereo unspecified) + Nc1ccc(C#CCN(C(=O)Cc2ncc(C(F)(F)F)cc2C(F)(F)F)c2ccc(F)cc2)nn1 gave an IC50 (second compound 0.0316 µM) of under 0.0316 µM, an IC50 (second compound 0.1 µM) of under 0.0316 µM and an IC50 (second compound 0.316 µM) of under 0.0316 µM. The IC50 (second compound 1 µM) was under 0.0316 µM, the IC50 (second compound 3.16 µM) was under 0.0316 µM and the IC50 (second compound 10 µM) was under 0.0316 µM. For the same compound, the viability, T/C [1] was 25.5%, the viability, T/C [2] was 25% and the viability, T/C [3] was 20.9%. The viability, T/C [4] was 22.2%, the viability, T/C [5] was 22.2% and the viability, T/C [6] was 17.2%. It also gave a viability, T/C [7] of 25.9%, a viability, T/C [8] of 25.5% and a viability, T/C [9] of 18.4%. It also gave a viability, T/C [10] of 21.9%, a viability, T/C [11] of 21.3% and a viability, T/C [12] of 19.4%. The viability, T/C [13] was 24.9%, the viability, T/C [14] was 24% and the viability, T/C [15] was 22.1%. For the same compound, the viability, T/C [16] was 20.1%, the viability, T/C [17] was 22.4% and the viability, T/C [18] was 20.5%. For the same compound, the viability, T/C [19] was 23.1%, the viability, T/C [20] was 19.1% and the viability, T/C [21] was 22.7%. The viability, T/C [22] was 21.8%, the viability, T/C [23] was 21.3% and the viability, T/C [24] was 23.3%. The viability, T/C [25] was 23.4%, the viability, T/C [26] was 18.7% and the viability, T/C [27] was 19.1%. The viability, T/C [28] was 20.4%, the viability, T/C [29] was 21.1% and the viability, T/C [30] was 20.8%. The viability, T/C [31] was 23.2%, the viability, T/C [32] was 18.9% and the viability, T/C [33] was 21.9%. It also gave a viability, T/C [34] of 18.4%, a viability, T/C [35] of 20.1% and a viability, T/C [36] of 17.5%.

Work on O=c1[nH]cc(F)c(=O)[nH]1 + Nc1ccc(C#CCN(C(=O)Cc2ncc(C(F)(F)F)cc2C(F)(F)F)c2ccc(F)cc2)nn1 yielded an IC50 (second compound 0.0316 µM) of 5.83 µM, an IC50 (second compound 0.1 µM) of 5.94 µM and an IC50 (second compound 0.316 µM) of 5.66 µM. For the same compound, the IC50 (second compound 1 µM) was 5.75 µM, the IC50 (second compound 3.16 µM) was 5.48 µM and the IC50 (second compound 10 µM) was 5.32 µM. The viability, T/C [1] was 103%, the viability, T/C [2] was 105% and the viability, T/C [3] was 105%. The viability, T/C [4] was 103%, the viability, T/C [5] was 79.9% and the viability, T/C [6] was 23.6%. The viability, T/C [7] was 106%, the viability, T/C [8] was 103% and the viability, T/C [9] was 104%. The viability, T/C [10] was 102%, the viability, T/C [11] was 80.7% and the viability, T/C [12] was 24.6%. For the same compound, the viability, T/C [13] was 104%, the viability, T/C [14] was 104% and the viability, T/C [15] was 104%. The viability, T/C [16] was 99.6%, the viability, T/C [17] was 76.8% and the viability, T/C [18] was 23.8%. The viability, T/C [19] was 103%, the viability, T/C [20] was 98.5% and the viability, T/C [21] was 103%. For the same compound, the viability, T/C [22] was 102%, the viability, T/C [23] was 82.4% and the viability, T/C [24] was 19.8%. For the same compound, the viability, T/C [25] was 99.8%, the viability, T/C [26] was 103% and the viability, T/C [27] was 100%. The viability, T/C [28] was 102%, the viability, T/C [29] was 75.7% and the viability, T/C [30] was 21.9%. For the same compound, the viability, T/C [31] was 98.6%, the viability, T/C [32] was 101% and the viability, T/C [33] was 100%. It also gave a viability, T/C [34] of 96.6%, a viability, T/C [35] of 77.4% and a viability, T/C [36] of 17.3%.
